Experimental data reported in US20080009546A1 (Chevron U.S.A. Inc., priority 2005, published 2008).
Read-outs that look alike come from different tables or passages of the source.

Columns and labels:
C57/BL6 male mice [1] = details: for # of deaths / # of extensions: 6 mice; for MES-induced death: 10 and 30 mg/kg i.p., mice
C57/BL6 male mice [2] = assay: Rotarod test (balance and coordination, side effects)
Description: The side effects of the compounds was primarily evaluated using the rotarod test, which mainly assesses the balancing and coordination of mice. The comparisons were made on fall time of the mice between the first measure (pre-treatment) and second measure taken 20 min after the drug/vehicle injection in the same group (paired t-test). […] Comparisons of the rotatod fall times after drug/vehicle dosing were made between drug treatment and control groups (unpaired t-test).

[3] = system: primary neurons from rat cerebral cortex; assay: NMDA-induced LDH release assay in primary cortical neurons (neuroprotection); format: cell-based; details: Rattus norvegicus, Primary neuron; two experiments; 300 uM NMDA + 50 μM glycine 15 minutes, LDH after 24 hours; read-out: average EC50 (±SD), NMDA-induced LDH release
Description: The neuroprotective properties of drugs have been studied in vitro, using neurons cultured from cortex, cerebellum or retina. […] Neurotoxicity is determined in this assay by measuring lactate dehydrogenase (LDH), a method which is simple, accurate and reproducible. We conducted pilot studies to test if poly-lysine-coated plates would be suitable as a matrix upon which to plate fetal neurons, compared to astrocyte-coated plates. We also compared the use of growth medium to neurobasal medium supplemented with B27 in the pilot experiments. The concentrations of NMDA (300-500 μM), glycine (10-50 μM), and memantine (10-100 μM) were varied, and optimum concentrations and times determined from these pilot studies were then chosen for the main study. The assay is described below.
Fetal rat neocortical cells were cultured on a mouse astroglial feeder layer. To obtain mouse astroglial cells for the feeder layer, cortices were harvested from 1-day old Swiss Webster mice (Charles River, Hollister, Calif.) according to the procedure described by Rose et al (1993). After dissecting cortices in ice-cold dissecting medium, they were minced and incubated in 0.09% trypsin in media stock for 1 hr, followed by resuspension in growth medium containing 10% equine serum and 10% fetal bovine serum. A single-cell suspension was obtained by triturating through fire-bored glass pipettes, and the resulting cell suspension was plated at a density of 0.5-0.75 hemispheres/24-well plate/9.6 ml, with 0.4 ml/well. Plates were incubated in a humidified incubator at 37° C., 5% CO2. Astroglial cells become confluent in about 2-3 weeks, at which time these cultures are ready to be used as feeder layers upon which neuronal cultures can be plated. Neuronal cells were obtained from gestational Sprague-Dawley rats E16-E18, using a similar dissection procedure. Rat embryos were dissected to obtain cortical tissue, which was plated as a single-cell suspension at a density of 1.4 hemispheres/24-well plate/9.6 ml, with 0.4 ml/well. These cells were plated on the existing astroglial feeder layer, and were incubated at 37° C., 5% CO2. After 5 days in culture, cytosine arabinoside (10 μM) was added to the wells to inhibit glial cell proliferation, and after 24 hours, the medium was replaced with fresh growth medium. Cells were fed with fresh growth medium every 2 days, until the experiments were performed. For coating plates with poly-lysine, we used poly-d-lysine hydrobromide (Sigma Cat # P7280) at a concentration of 0.1 mg/ml to coat each well using a minimum volume of 0.2 ml/well. After coating for 5 minutes, the solution was aspirated and wells were rinsed thoroughly with sterile tissue culture grade water. After drying for 2 hours, plates were ready for use. Neuronal cultures were plated onto poly-lysine-coated plates at the same density as above. For the pilot study, some of the cultures were fed with 1:1 ratio of growth medium: neurobasal medium (GIBCO)+B-27 supplement (2%), while the rest of the cultures were fed with growth medium alone (Losi et al., 2006). For the main study, we used astroglial feeder layers to plate the neuronal cultures, and used a mix (1:1) of growth medium with neurobasal medium+B-27 supplement for feeding the cultures.
After 11-14 days in culture, neuronal cells were confluent and experiments were performed. Cells were washed twice using sterile Locke's buffer (154 mM NaCl, 5.6 mM KCl, 2.3 mM CaCl2, 3.6 mM NaHCO3, 5.5 mM D-glucose, 5 mM HEPES, pH 7.4), and then exposed to the various treatment compounds. […] After 15 minutes, cultures were washed twice and incubated overnight in media stock. After 24 hours, supernatants and lysates were collected to measure LDH activity. LDH activity was measured by the reduction of NAD, which was utilized in the stoichiometric conversion of a tetrazolium dye using a kit (Sigma TOX-7). Supernatants were removed from the wells and centrifuged before LDH measurements. The adherent cells were lysed to obtain total LDH. […]

NMDA receptor = assay: Whole-cell voltage-clamp recordings of NMDA evoked currents in hypocretin neurons (hypothalamic slices); format: cell-based, mouse; details: for inhibition of the peak amplitude of NMDA evoked currents: bath application, -60 mV, mean±SEM; for reversibility of inhibition of NMDA evoked currents upon washout: washout of the compound
C57/BL6 male mice [4] = assay: Pentylenetetrazol (PTZ)-induced seizure/death model; format: in vivo, mouse; details: for # mice with L3 seizure / # mice with L4 seizure / # of deaths within 30 min: 6 mice; for # of deaths within 30 min / PTZ-induced death: PTZ 100 mg/kg; for Time to death: mice that died within 30 min; for PTZ-induced death: 30 min observation
Description: Although the protection against death is the key endpoint, other effects of the compounds on PTZ-induced seizures were also assessed using multiple parameters. For the mice that did die within the 30 minute observation window, the time of death was also compared. […] The seizure occurrence rate, onset time and number of level 3 (L3) seizure (repetitive seizures but the animal can still stand) and level 4 (L4) seizure (repetitive seizures and the animal loses righting) are also analyzed. The MDT compound (30 mg/kg) treated groups show a certain degree of improvement compared to control. No data from MK801 or memantine were included because the seizures occurring under these treatments are totally different from the control or MDT injected groups due to side effects (“high jumping”).

[5] = after, 20 min after 10 mg/kg i.p.
[6] = after, 20 min after 30 mg/kg i.p.
[7] = before (pre-treatment), 10 mg/kg group
[8] = before (pre-treatment), 30 mg/kg group

SMILES: CC12CC3(N)CC4C5CC(CC41)CC2C5C3 [MDT-22, 1-methyl-9-aminodiamantane]
- Extension rate (C57/BL6 male mice [1]; 10 mg/kg i.p.): 1.00
- Mortality rate (C57/BL6 male mice [1]; 10 mg/kg i.p.): 0.50
- # of deaths (C57/BL6 male mice [1]; 10 mg/kg i.p.): 3
- # of extensions (C57/BL6 male mice [1]; 10 mg/kg i.p.): 6
- Extension rate (C57/BL6 male mice [1]; 30 mg/kg i.p.): 0.83
- Mortality rate (C57/BL6 male mice [1]; 30 mg/kg i.p.): 0.33
- # of deaths (C57/BL6 male mice [1]; 30 mg/kg i.p.): 2
- # of extensions (C57/BL6 male mice [1]; 30 mg/kg i.p.): 5
- MES-induced death (C57/BL6 male mice [1]): dose dependent reduction in MES-induced death
- Fall Time (C57/BL6 male mice [2]; [5]): 44.58 ± 4.58 min
- Fall Time (C57/BL6 male mice [2]; [6]): 44.93 ± 5.45 min
- Fall Time (C57/BL6 male mice [2]; [7]): 33.56 ± 3.91 min
- Fall Time (C57/BL6 male mice [2]; [8]): 45.03 ± 6.02 min
- EC50 [3]: 56.5 ± 14.6 µM
- inhibition of the peak amplitude of NMDA evoked currents (NMDA receptor; 10 μM): 19±3.1%
- inhibition of the peak amplitude of NMDA evoked currents (NMDA receptor; 100 μM): 45±12.1%
- reversibility of inhibition of NMDA evoked currents upon washout (NMDA receptor): reversible
- # L3 per mouse (C57/BL6 male mice [4]; 10 mg/kg i.p.): 2.00 ± 0.58
- # L4 per mouse (C57/BL6 male mice [4]; 10 mg/kg i.p.): 3.85 ± 2.28
- L3 onset time (C57/BL6 male mice [4]; 10 mg/kg i.p.): 2.80 ± 1.00 min
- L3 seizure rate (C57/BL6 male mice [4]; 10 mg/kg i.p.): 0.50
- L4 onset time (C57/BL6 male mice [4]; 10 mg/kg i.p.): 7.90 ± 1.70 min
- L4 seizure rate (C57/BL6 male mice [4]; 10 mg/kg i.p.): 1.00
- Mortality rate (C57/BL6 male mice [4]; 10 mg/kg i.p.): 1.00
- # mice with L3 seizure (C57/BL6 male mice [4]; 10 mg/kg i.p.): 3
- # mice with L4 seizure (C57/BL6 male mice [4]; 10 mg/kg i.p.): 6
- # of deaths within 30 min (C57/BL6 male mice [4]; 10 mg/kg i.p.): 6
- Time to death (C57/BL6 male mice [4]; 10 mg/kg i.p.): 9.60 ± 1.80 min
- # L3 per mouse (C57/BL6 male mice [4]; 30 mg/kg i.p.): 1.67 ± 0.50
- # L4 per mouse (C57/BL6 male mice [4]; 30 mg/kg i.p.): 1.17 ± 0.19
- L3 onset time (C57/BL6 male mice [4]; 30 mg/kg i.p.): 5.10 ± 2.30 min
- L3 seizure rate (C57/BL6 male mice [4]; 30 mg/kg i.p.): 1.00
- L4 onset time (C57/BL6 male mice [4]; 30 mg/kg i.p.): 10.20 ± 3.00 min
- L4 seizure rate (C57/BL6 male mice [4]; 30 mg/kg i.p.): 1.00
- Mortality rate (C57/BL6 male mice [4]; 30 mg/kg i.p.): 0.67
- # mice with L3 seizure (C57/BL6 male mice [4]; 30 mg/kg i.p.): 6
- # mice with L4 seizure (C57/BL6 male mice [4]; 30 mg/kg i.p.): 6
- # of deaths within 30 min (C57/BL6 male mice [4]; 30 mg/kg i.p.): 4
- Time to death (C57/BL6 male mice [4]; 30 mg/kg i.p.): 7.70 ± 2.10 min
- PTZ-induced death (C57/BL6 male mice [4]; 10 and 30 mg/kg i.p.): a certain reduction in PTZ-induced death

SMILES: CC12CC3CC4C1CC1(N)CC2C(C3)C4(C)C1 [MDT-23, 4-amino-1,6-dimethyl-diamantane]
- Extension rate (C57/BL6 male mice [1]; 10 mg/kg i.p.): 1.00
- Mortality rate (C57/BL6 male mice [1]; 10 mg/kg i.p.): 0.67
- # of deaths (C57/BL6 male mice [1]; 10 mg/kg i.p.): 4
- # of extensions (C57/BL6 male mice [1]; 10 mg/kg i.p.): 6
- Extension rate (C57/BL6 male mice [1]; 30 mg/kg i.p.): 1.00
- Mortality rate (C57/BL6 male mice [1]; 30 mg/kg i.p.): 0.17
- # of deaths (C57/BL6 male mice [1]; 30 mg/kg i.p.): 1
- # of extensions (C57/BL6 male mice [1]; 30 mg/kg i.p.): 6
- MES-induced death (C57/BL6 male mice [1]): dose dependent reduction in MES-induced death
- Fall Time (C57/BL6 male mice [2]; [5]): 42.98 ± 2.82 min
- Fall Time (C57/BL6 male mice [2]; [6]): 31.37 ± 3.83 min
- Fall Time (C57/BL6 male mice [2]; [7]): 28.63 ± 3.10 min
- Fall Time (C57/BL6 male mice [2]; [8]): 39.77 ± 6.14 min
- rotarod fall time, pre-treatment vs 20 min after injection (C57/BL6 male mice [2]; high dose 30 mg/kg i.p., paired t-test): loss of performance
- rotarod performance after dosing vs. control (C57/BL6 male mice [2]; high dose 30 mg/kg i.p., unpaired t-test): statistically significant decreases in rotarod performance
- EC50 [3]: 11.1 ± 9.3 µM
- inhibition of the peak amplitude of NMDA evoked currents (NMDA receptor; 10 μM): 11.6±4.3%
- inhibition of the peak amplitude of NMDA evoked currents (NMDA receptor; 100 μM): 22.9±9.3%
- reversibility of inhibition of NMDA evoked currents upon washout (NMDA receptor): not reversible
- # L3 per mouse (C57/BL6 male mice [4]; 10 mg/kg i.p.): 4.67 ± 1.65
- # L4 per mouse (C57/BL6 male mice [4]; 10 mg/kg i.p.): 1.67 ± 0.49
- L3 onset time (C57/BL6 male mice [4]; 10 mg/kg i.p.): 3.00 ± 0.20 min
- L3 seizure rate (C57/BL6 male mice [4]; 10 mg/kg i.p.): 0.50
- L4 onset time (C57/BL6 male mice [4]; 10 mg/kg i.p.): 13.80 ± 4.40 min
- L4 seizure rate (C57/BL6 male mice [4]; 10 mg/kg i.p.): 1.00
- Mortality rate (C57/BL6 male mice [4]; 10 mg/kg i.p.): 0.50
- # mice with L3 seizure (C57/BL6 male mice [4]; 10 mg/kg i.p.): 3
- # mice with L4 seizure (C57/BL6 male mice [4]; 10 mg/kg i.p.): 6
- # of deaths within 30 min (C57/BL6 male mice [4]; 10 mg/kg i.p.): 3
- Time to death (C57/BL6 male mice [4]; 10 mg/kg i.p.): 14.00 ± 6.60 min
- # L3 per mouse (C57/BL6 male mice [4]; 30 mg/kg i.p.): 3.83 ± 2.44
- # L4 per mouse (C57/BL6 male mice [4]; 30 mg/kg i.p.): 1.00 ± 0.0
- L3 onset time (C57/BL6 male mice [4]; 30 mg/kg i.p.): 5.00 ± 1.90 min
- L3 seizure rate (C57/BL6 male mice [4]; 30 mg/kg i.p.): 1.00
- L4 onset time (C57/BL6 male mice [4]; 30 mg/kg i.p.): 19.80 ± 4.20 min
- L4 seizure rate (C57/BL6 male mice [4]; 30 mg/kg i.p.): 1.00
- Mortality rate (C57/BL6 male mice [4]; 30 mg/kg i.p.): 1.00
- average time of death (C57/BL6 male mice [4]; 30 mg/kg i.p., mice that died within 30 minute window): 22 ± 2.9 min
- # mice with L3 seizure (C57/BL6 male mice [4]; 30 mg/kg i.p.): 6
- # mice with L4 seizure (C57/BL6 male mice [4]; 30 mg/kg i.p.): 6
- # of deaths within 30 min (C57/BL6 male mice [4]; 30 mg/kg i.p.): 6
- Time to death (C57/BL6 male mice [4]; 30 mg/kg i.p.): 22.00 ± 2.90 min
- PTZ-induced death (C57/BL6 male mice [4]; 10 and 30 mg/kg i.p.): a certain reduction in PTZ-induced death
- PTZ-induced death (C57/BL6 male mice [4]; high dose 30 mg/kg i.p.): died within 30 minutes
